# Patent US6063812A, “Fumagillol derivatives and processes for preparing the same” (Chong Kun Dang Corporation, priority 1998, dated 2000)
# Where two headings read alike, the source gives them in different places.
# Tests used:
# [1] = tested on: CPAE (Calf Pulmonary Artery Endothelial) cells; test: Inhibiting activity on angiogenesis in vitro: CPAE cells, SRB method; assay type: cell-based; conditions: Bos taurus, Endothelial cell, 96 h, 4 days, 10% FBS + ECGS
# Method: (§1) The compound sample dissolved in DMSO was diluted to ten times by using MEM culture medium (in case of CPAE cells) without adding FBS (Fetal Bovine Serum), and RPMI 1640 culture (in case of EL-4 and P388D1 cells), and 20 μl of the solution was poured to each well of 96 well plate in triplicate for every concentration gradient. Then, each cell suspension was prepared and poured to examine the inhibiting activity on angiogenesis.
# In case of CPAE (Calf Pulmonary Artery Endothelial) cells (used after 2-3 subcultures), a cell suspension having 7×10^3 cells/ml was prepared with MEM (+10% FBS+50 μg/ml ECGS) medium, and after pouring the suspension (180 μl) to each well of 96 well plate, they were cultured in a CO2 incubator (5% CO2, humidified) for 4 days.
# [2] = tested on: EL-4 (Lymphoma, murine) cells; test: Inhibiting activity on angiogenesis in vitro: EL-4 cells, MTT method; assay type: cell-based; conditions: Mus musculus, EL4, 72 h, read-out: IC50, EL-4
# Method: as §1
# In case of EL-4 (Lymphoma, murine) and P388D1 (leukemia, mouse) cells, a cell suspension having 1×10^4 cells/ml was prepared with RPMI1640 (+10% FBS) culture medium, and after pouring the suspension (180 μl) to each well of 96 well plate, they were cultured in a CO2 incubator (5% CO2, humidified) for 3 days.
# [3] = EL-4 cells, 3 days, MTT method, 10% FBS
Compound,"IC50 [2, 3]",IC50 [1],IC50 [2]
"COc1cc(/C=C/C(=O)O[C@@H]2CC[C@]3(CO3)[C@@H]([C@@]3(C)O[C@@H]3CC=C(C)C)[C@@H]2OC)cc(OC)c1OC(C)=O [Example 11, O-(4-acetoxy-3,5-dimethoxycinnamoyl)fumagillol]",0.00032 ng/mL,0.00021 ng/mL,
"COc1cc(/C=C/C(=O)O[C@@H]2CC[C@]3(CO3)[C@@H]([C@@]3(C)O[C@@H]3CC=C(C)C)[C@@H]2OC)cc(OC)c1OC [Example 3, O-(3,4,5-trimethoxycinnamoyl)fumagillol]",,,1.1e-05 ng/mL
"COc1cc(/C=C/CO[C@@H]2CC[C@]3(CO3)[C@@H]([C@@]3(C)O[C@@H]3CC=C(C)C)[C@@H]2OC)cc(OC)c1OC [Example 17, O-(3,4,5-trimethoxycinnamyl)fumagillol]",0.0015 ng/mL,0.0012 ng/mL,
"COc1ccc(/C=C/C(=O)O[C@@H]2CC[C@](O)(CCl)[C@@H]([C@@]3(C)O[C@@H]3CC=C(C)C)[C@@H]2OC)cc1 [Example 13, 4-(4-methoxycinnamoyl)oxy-2-(1,2-epoxy-1,5-dimethyl-4-hexenyl)-3-methoxy-1-chloromethyl-1-cyclohexanol]",0.0016 ng/mL,0.0011 ng/mL,
"CO[C@@H]1[C@H](OC(=O)/C=C/c2ccc([N+](=O)[O-])cc2)CC[C@]2(CO2)[C@H]1[C@@]1(C)O[C@@H]1CC=C(C)C [Example 7, O-(4-nitrocinnamoyl)fumagillol]",0.054 ng/mL,0.012 ng/mL,
"COc1cc(/C=C/C(=O)O[C@@H]2CC[C@](O)(CCl)[C@@H]([C@@]3(C)O[C@@H]3CC=C(C)C)[C@@H]2OC)cc(OC)c1OC [Example 5, 4-(3,4,5-trimethoxycinnamoyl)oxy-2-(1,2-epoxy-1,5-dimethyl-4-hexenyl)-3-methoxy-1-chloromethyl-1-cyclohexanol]",1.1e-05 ng/mL,4.8e-05 ng/mL,
"CO[C@@H]1[C@H](OC(=O)/C=C/C=C/C=C/C=C/C(=O)O)CC[C@]2(CO2)[C@H]1[C@@]1(C)O[C@@H]1CC=C(C)C [Fumagillin, fumagillin, reference compound]",,,1.6 ng/mL
"COc1ccc(/C=C/C(=O)O[C@@H]2CC[C@]3(CO3)[C@@H]([C@@]3(C)O[C@@H]3CC=C(C)C)[C@@H]2OC)cc1 [Example 2, O-(4-methoxycinnamoyl)fumagillol]",0.0022 ng/mL,0.0017 ng/mL,
"CO[C@@H]1[C@H](OC(=O)/C=C/c2ccc(OC(C)=O)cc2)CC[C@]2(CO2)[C@H]1[C@@]1(C)O[C@@H]1CC=C(C)C [Example 9, O-(4-acetoxycinnamoyl)fumagillol]",0.0066 ng/mL,0.0044 ng/mL,
"COc1cc(/C=C/C(=O)O[C@@H]2CC[C@]3(CO3)[C@@H]([C@@]3(C)O[C@@H]3CC=C(C)C)[C@@H]2OC)cc(OC)c1O [Example 12, O-(3,5-dimethoxy-4-hydroxycinnamoyl)fumagillol]",0.00069 ng/mL,0.00073 ng/mL,
"CO[C@@H]1[C@H](OC(=O)/C=C/c2ccc(Cl)cc2)CC[C@]2(CO2)[C@H]1[C@@]1(C)O[C@@H]1CC=C(C)C [Example 4, O-(chlorocinnamoyl)fumagillol]",0.84 ng/mL,0.99 ng/mL,

# The next lines start with results.
"IC50 [2, 3]",Compound,IC50 [1],IC50 [2]
0.00049 ng/mL,"CO[C@@H]1[C@H](OC(=O)/C=C/c2ccc(N(C)C)cc2)CC[C@]2(CO2)[C@H]1[C@@]1(C)O[C@@H]1CC=C(C)C [Example 14, O-(4-dimethylaminocinnamoyl)fumagillol]",0.00063 ng/mL,
0.00022 ng/mL,"CO[C@@H]1[C@H](OC(=O)/C=C/c2ccc3c(c2)OCO3)CC[C@]2(CO2)[C@H]1[C@@]1(C)O[C@@H]1CC=C(C)C [Example 20, O-(3,4-methylenedioxycinnamoyl)fumagillol]",0.00012 ng/mL,
0.00041 ng/mL,"CO[C@@H]1[C@H](OC(=O)/C=C/c2ccc(N(C)C)cc2)CC[C@](O)(CCl)[C@H]1[C@@]1(C)O[C@@H]1CC=C(C)C [Example 25, 4-(4-dimethylaminocinnamoyl)oxy-2-(1,2-epoxy-1,5-dimethyl-4-hexenyl)-3-methoxy-1-chloromethyl-1-cyclohexanol]",0.00033 ng/mL,
0.0043 ng/mL,"CO[C@@H]1[C@H](OC(=O)/C=C/c2ccc(N)cc2)CC[C@]2(CO2)[C@H]1[C@@]1(C)O[C@@H]1CC=C(C)C [Example 15, O-(4-aminocinnamoyl)fumagillol]",0.0025 ng/mL,
0.00082 ng/mL,"COc1cc(N)c(/C=C/C(=O)O[C@@H]2CC[C@]3(CO3)[C@@H]([C@@]3(C)O[C@@H]3CC=C(C)C)[C@@H]2OC)cc1OC [Example 21, O-(3,4-dimethoxy-6-aminocinnamoyl)fumagillol]",0.00083 ng/mL,
0.00057 ng/mL,"COc1ccc(/C=C/C(=O)O[C@@H]2CC[C@]3(CO3)[C@@H]([C@@]3(C)O[C@@H]3CC=C(C)C)[C@@H]2OC)cc1CN(C)C [Example 19, O-(3-dimethylaminomethyl-4-methoxycinnamoyl)fumagillol]",0.00032 ng/mL,
0.00041 ng/mL,"CO[C@@H]1[C@H](OC(=O)/C=C/c2ccc(OCCN(C)C)cc2)CC[C@]2(CO2)[C@H]1[C@@]1(C)O[C@@H]1CC=C(C)C [Example 18, O-(4-dimethylaminoethoxycinnamoyl)fumagillol]",0.00052 ng/mL,
